In patent publication US11021457B2, “Class of isoindolone-imide ring-1,3-dione-2-ene compounds, composition and use thereof” (WIGEN BIOMEDICINE TECHNOLOGY (SHANGHAI) CO., LTD., priority 2017, dated 2021):

Columns and labels:
Assay type in all cases: cell-based
Details in all cases: compound concentration 50 μM, 72 hours
K562 = experiment: Inhibition of tumor cell proliferation, CellTiter-Glo, K562
Description: (§1) For various cell lines, the corresponding complete medium was used, and culture was carried out in an incubator at 37° C. with 5% CO2. The cells were counted, and inoculated into a 96-well plate at 2000-10000 cells/100 μl per well according to the cell volume and growth rate. The suspended cells were treated immediately, and the adherent cells were treated after adherence. The CellTiter-Glo method was used to detect the changes in cell viability 72 hours after the administration, and the cell survival rate at different concentrations was calculated by a formula: Survival rate (%)=(RLU of treatment well−RLU of blank well)/(RLU of control well−RLU of blank well)×100.
(§2) Method for expressing the inhibitory activity of the compounds against the proliferation of tumor cells: Evaluation was made based on the cell survival rate at a compound concentration of 50 μM. 60≤survival rate (%)<90 is considered to have low inhibitory activity against the proliferation of tumor cells (+); 30<survival rate (%)≤60 is considered to have moderate inhibitory activity against the proliferation of tumor cells (++); and survival rate (%)≤30 is considered to have high inhibitory activity against the proliferation of tumor cells (+++).

A549 = experiment: Inhibition of tumor cell proliferation, CellTiter-Glo, A549
Description: as §1, §2

MDA-MB-453 = experiment: Inhibition of tumor cell proliferation, CellTiter-Glo, MDA-MB-453
Description: as §1, §2

BxPC-3 = experiment: Inhibition of tumor cell proliferation, CellTiter-Glo, BxPC-3
Description: as §1, §2

SU-DHL6 = experiment: Inhibition of tumor cell proliferation, CellTiter-Glo, SU-DHL6
Description: as §1, §2

RPMI-8226 = experiment: Inhibition of tumor cell proliferation, CellTiter-Glo, RPMI-8226
Description: as §1, §2

Structure (SMILES) | Inhibitory activity against proliferation (cell survival rate) K562 (K562) | Inhibitory activity against proliferation (cell survival rate) A549 (A549) | Inhibitory activity against proliferation (cell survival rate) MDA-MB-453 (MDA-MB-453) | Inhibitory activity against proliferation (cell survival rate) BxPC-3 (BxPC-3) | Inhibitory activity against proliferation (cell survival rate) SU-DHL6 (SU-DHL6) | Inhibitory activity against proliferation (cell survival rate) RPMI-8226 (RPMI-8226) | cell survival rate (%) at 50 µM (K562; Homo sapiens, K562, read-out: Inhibitory activity against proliferation (cell survival rate) K562) [%] | cell survival rate (% of control) at 50 µM (A549; Homo sapiens, A549, read-out: Inhibitory activity against proliferation (cell survival rate) A549) [%] | cell survival rate (%) at 50 µM (MDA-MB-453; Homo sapiens, MDA-MB-453, read-out: Inhibitory activity against proliferation (cell survival rate) MDA-MB-453) [%] | cell survival rate (%) at 50 µM (BxPC-3; Homo sapiens, BXPC-3, read-out: Inhibitory activity against proliferation (cell survival rate) BxPC-3) [%] | cell survival rate (% of control) at 50 µM (SU-DHL6; Homo sapiens, SU-DHL-6, read-out: Inhibitory activity against proliferation (cell survival rate) SU-DHL6) [%] | cell survival rate (% of control) at 50 µM (RPMI-8226; Homo sapiens, RPMI-8226, read-out: Inhibitory activity against proliferation (cell survival rate) RPMI-8226) [%]
O=C1CCC(N2Cc3c(NC=C4C(=O)CC(c5ccc(OC(F)(F)F)cc5)CC4=O)cccc3C2=O)C(=O)N1 (stereo not drawn) [Compound 22] | + (60≤survival rate (%)<90) | + (60≤survival rate (%)<90) | ++ (30<survival rate (%)≤60) | ++ (30<survival rate (%)≤60) | + (60≤survival rate (%)<90) | + (60≤survival rate (%)<90) | – | – | – | – | – | –
O=C1CCC(N2Cc3c(NC=C4C(=O)CC(c5ccccc5C(F)(F)F)CC4=O)cccc3C2=O)C(=O)N1 (stereo not drawn) [Compound 23] | ++ (30<survival rate (%)≤60) | +++ (survival rate (%)≤30) | ++ (30<survival rate (%)≤60) | ++ (30<survival rate (%)≤60) | +++ (survival rate (%)≤30) | +++ (survival rate (%)≤30) | – | – | – | – | – | –
O=C1CCC(N2Cc3c(NC=C4C(=O)CC(c5ccccc5F)CC4=O)cccc3C2=O)C(=O)N1 (stereo not drawn) [Compound 24] | + (60≤survival rate (%)<90) | ++ (30<survival rate (%)≤60) | ++ (30<survival rate (%)≤60) | ++ (30<survival rate (%)≤60) | +++ (survival rate (%)≤30) | + (60≤survival rate (%)<90) | – | – | – | – | – | –
O=C1CCC(N2Cc3c(NC=C4C(=O)CC(c5cccc6sccc56)CC4=O)cccc3C2=O)C(=O)N1 (stereo not drawn) [Compound 27] | +++ (survival rate (%)≤30) | +++ (survival rate (%)≤30) | +++ (survival rate (%)≤30) | + (60≤survival rate (%)<90) | +++ (survival rate (%)≤30) | +++ (survival rate (%)≤30) | – | – | – | – | – | –
O=C1CCC(N2Cc3c(NC=C4C(=O)CC(c5ccccc5)C(F)C4=O)cccc3C2=O)C(=O)N1 (stereo not drawn) [Compound 28] | – | – | – | – | – | – | ≤ 30 | ≤ 30 | ≤ 30 | 30 to 60 | ≤ 30 | ≤ 30
O=C1CCC(N2Cc3c(NC=C4C(=O)CC(c5cccc6ccccc56)CC4=O)cccc3C2=O)C(=O)N1 (stereo not drawn) [Compound 29] | +++ (survival rate (%)≤30) | +++ (survival rate (%)≤30) | +++ (survival rate (%)≤30) | ++ (30<survival rate (%)≤60) | ++ (30<survival rate (%)≤60) | +++ (survival rate (%)≤30) | – | – | – | – | – | –
O=C1CCC(N2Cc3c(NC=C4C(=O)CC(c5c6ccccc6cc6ccccc56)CC4=O)cccc3C2=O)C(=O)N1 (stereo not drawn) [Compound 30] | +++ (survival rate (%)≤30) | +++ (survival rate (%)≤30) | +++ (survival rate (%)≤30) | + (60≤survival rate (%)<90) | +++ (survival rate (%)≤30) | +++ (survival rate (%)≤30) | – | – | – | – | – | –
CN(C)c1ccc(Br)c(C2CC(=O)C(=CNc3cccc4c3CN(C3CCC(=O)NC3=O)C4=O)C(=O)C2)c1 (stereo not drawn) [Compound 31] | +++ (survival rate (%)≤30) | +++ (survival rate (%)≤30) | +++ (survival rate (%)≤30) | + (60≤survival rate (%)<90) | +++ (survival rate (%)≤30) | +++ (survival rate (%)≤30) | – | – | – | – | – | –
COc1ccc(C2CC(=O)C(=CNc3cccc4c3CN(C3CCC(=O)NC3=O)C4=O)C(=O)C2)cc1 (stereo not drawn) [Compound 32] | +++ (survival rate (%)≤30) | +++ (survival rate (%)≤30) | ++ (30<survival rate (%)≤60) | + (60≤survival rate (%)<90) | +++ (survival rate (%)≤30) | +++ (survival rate (%)≤30) | – | – | – | – | – | –
COC(=O)c1ccc(C2CC(=O)C(=CNc3cccc4c3CN(C3CCC(=O)NC3=O)C4=O)C(=O)C2)cc1 (stereo not drawn) [Compound 33] | +++ (survival rate (%)≤30) | +++ (survival rate (%)≤30) | +++ (survival rate (%)≤30) | + (60≤survival rate (%)<90) | +++ (survival rate (%)≤30) | +++ (survival rate (%)≤30) | – | – | – | – | – | –
O=C1CCC(N2Cc3c(NC=C4C(=O)CC(c5ccc(O)cc5)CC4=O)cccc3C2=O)C(=O)N1 (stereo not drawn) [Compound 34] | ++ (30<survival rate (%)≤60) | + (60≤survival rate (%)<90) | +++ (survival rate (%)≤30) | + (60≤survival rate (%)<90) | +++ (survival rate (%)≤30) | ++ (30<survival rate (%)≤60) | – | – | – | – | – | –
O=C1CCC(N2Cc3c(NC=C4C(=O)CC(c5ccccc5Cc5ccccc5)CC4=O)cccc3C2=O)C(=O)N1 (stereo not drawn) [Compound 35] | +++ (survival rate (%)≤30) | +++ (survival rate (%)≤30) | ++ (30<survival rate (%)≤60) | ++ (30<survival rate (%)≤60) | +++ (survival rate (%)≤30) | +++ (survival rate (%)≤30) | – | – | – | – | – | –
O=C1CCC(N2Cc3c(NC=C4C(=O)CC(c5cccs5)CC4=O)cccc3C2=O)C(=O)N1 (stereo not drawn) [Compound 36] | + (60≤survival rate (%)<90) | + (60≤survival rate (%)<90) | ++ (30<survival rate (%)≤60) | + (60≤survival rate (%)<90) | +++ (survival rate (%)≤30) | + (60≤survival rate (%)<90) | – | – | – | – | – | –
